For two compounds, antimicrobial action and Solubility results are on record in patent US20040198973A1, “Process for preparation of carbapenem antibiotics” (priority 2001, published 2004).

A value given as a limit tells only on which side of the number the result lay.

For one data set, the system named is Pseudomonas aeruginosa. Conditions: Document 1: Drug of the Future, 1996, 21(4): 361-365; cited from earlier work.
A short description of data set [1]: Solubility of starting compound 1 in organic solvents. Format: physicochemical. An excerpt: The process described in Document 3 (Kohichi Hirai, Hiroshi Maruyama, Journal of Synthetic Organic Chemistry, Japan, 57, 383 (1999)) is the one for implementing such a procedure wherein a side chain part including amine is first condensed with parent derived from azetidinone, then, an active ester is introduced into the condensate, and thereafter, the resulting product is subjected to ring-closing reaction to form a lactam ring. However, a compound into which an active ester has been already introduced, p-nitrobenzyl(1R,5S,6S)-2-diphenoxyphosphoryloxy-6-[(R)-1-hydroxyethyl]-1-methyl-1-carbapen-2-em-3-carboxylate (starting compound 1) is industrially available recently at an affordable price as a starting material for parent of carbapenem, so that the starting material has been replaced by the above-described compound. However, solubility of the starting compound 1 is high in a high boiling point solvent such as dimethylformamide and dimethylsulfoxide, while it is low in a solvent having a low boiling point such as tetrahydrofuran and acetonitrile, as well as in aromatic solvents such as toluene (see the following Table 1). Under the circumstances, when a high boiling point solvent is used, a difficulty in industrial level arises in case of removing the high boiling point solvent as described later in detail. For this reason, there are many cases wherein the above-described starting compound 1 cannot be applied to the process of Document 3.

For the compound `C[C@@H](O)[C@H]1C(=O)N2C(C(=O)O)=C(S[C@@H]3CN[C@H]([C@H](O)[C@@H]4CCNC4)C3)[C@H](C)[C@H]12`, the antimicrobial action entry in the data set with Pseudomonas aeruginosa is given as “excellent antimicrobial action”.
On to `C[C@@H](O)[C@H]1C(=O)N2C(C(=O)OCc3ccc([N+](=O)[O-])cc3)=C(OP(=O)(Oc3ccccc3)Oc3ccccc3)[C@H](C)[C@@H]12` [p-nitrobenzyl(1R,5S,6S)-2-diphenoxyphosphoryloxy-6-[(R)-1-hydroxyethyl]-1-methyl-1-carbapen-2-em-3-carboxylate], for which the Solubility was 0.6 ML/0.1 g in data set [1] (Acetonitrile, at 20° C., solvent volume per 0.1 g); <0.1 ML/0.1 g in data set [1] (Dimethylformamide, at 20° C., solvent volume per 0.1 g); <0.1 ML/0.1 g in data set [1] (Methylsulfoxide, at 20° C., solvent volume per 0.1 g); 0.6 ML/0.1 g in data set [1] (Tetrahydrofuran, at 20° C., solvent volume per 0.1 g); >10 ML/0.1 g in data set [1] (Toluene, at 20° C., solvent volume per 0.1 g); “high” in data set [1] (in a high boiling point solvent such as dimethylformamide and dimethylsulfoxide). In addition, the Solubility entry in data set [1] (in a low boiling point solvent such as tetrahydrofuran and acetonitrile, and aromatic solvents such as toluene) is “low”.
